SMILES strings stand for the structures.

One experiment addresses T1, BA/F3-FLT3-ITD + D835Y (Homo sapiens, UniProt P36888, D835Y, cells depend on it, form not given).
T1 sequence (P36888 with tags, fused parts or gaps INS600HVDFREYEYD/D835Y): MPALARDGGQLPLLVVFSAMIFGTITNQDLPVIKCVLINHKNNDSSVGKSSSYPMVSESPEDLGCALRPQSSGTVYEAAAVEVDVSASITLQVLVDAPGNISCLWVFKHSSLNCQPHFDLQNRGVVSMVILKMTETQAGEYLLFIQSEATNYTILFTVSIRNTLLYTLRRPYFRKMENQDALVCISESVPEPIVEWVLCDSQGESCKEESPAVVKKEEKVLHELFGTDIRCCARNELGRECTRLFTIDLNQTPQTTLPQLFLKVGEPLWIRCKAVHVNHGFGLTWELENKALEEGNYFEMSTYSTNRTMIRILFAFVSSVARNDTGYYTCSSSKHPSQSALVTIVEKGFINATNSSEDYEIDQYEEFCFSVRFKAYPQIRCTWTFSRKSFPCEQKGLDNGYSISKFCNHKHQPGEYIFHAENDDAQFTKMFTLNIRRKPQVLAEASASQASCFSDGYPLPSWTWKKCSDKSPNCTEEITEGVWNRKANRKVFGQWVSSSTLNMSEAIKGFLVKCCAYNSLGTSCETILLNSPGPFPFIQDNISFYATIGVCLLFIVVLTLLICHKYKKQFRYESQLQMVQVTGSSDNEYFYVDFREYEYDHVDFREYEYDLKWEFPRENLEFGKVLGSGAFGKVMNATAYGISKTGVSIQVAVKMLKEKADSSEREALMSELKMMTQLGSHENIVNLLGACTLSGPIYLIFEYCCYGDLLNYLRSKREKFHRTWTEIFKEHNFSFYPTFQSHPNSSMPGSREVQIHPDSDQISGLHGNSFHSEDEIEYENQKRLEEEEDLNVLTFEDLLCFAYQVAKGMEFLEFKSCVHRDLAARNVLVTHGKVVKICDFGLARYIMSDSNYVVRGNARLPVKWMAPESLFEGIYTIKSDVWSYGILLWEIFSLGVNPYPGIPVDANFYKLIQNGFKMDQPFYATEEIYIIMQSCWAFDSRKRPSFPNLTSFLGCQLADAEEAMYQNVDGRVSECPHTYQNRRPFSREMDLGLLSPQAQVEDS
Kind of experiment: Engineered BA/F3 cell growth assay, FLT3 ITD/D835Y. It is filed as cell-based, murine. The settings on record: 3 d growth. The procedure, abridged:
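IC50 derived from CellTiter-Glo ATP luminescence after 3 days at 37 °C, 5% CO2, over eight 1:3 dilutions from 1 μM (0.2% DMSO final). Cells: IL-3-independent murine Ba/F3 expressing full-length FLT3 ITD/D835Y, 1×10^4 per well.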

Experiment [1] relates to MOLM-14 D835Y (endogenous FLT3 ITD and transfected FLT3 D835Y). Put plainly: MOLM-14 D835Y cell proliferation assay (CellTiter-Glo). The settings on record: Homo sapiens, MOLM-14, 72 h; 3 d growth, GMean. It is filed as cell-based. The essentials: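 Three-day proliferation at 37 °C/5% CO2 of FLT3-ITD MOLM-14 lines with D835Y or F691L mutation, seeded 1×10^4 per well. Compounds at eight points, top 1 μM final, 0.2% DMSO. ATP luminescence (CellTiter-Glo) gives IC50.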
For orientation: In ATP-based viability assays light output follows the ATP content of the culture.

`COc1ncc(NC(=O)Cc2ccc(-c3cnc4[nH]cc(Cl)c4n3)cc2F)cc1C(F)(F)F` [Compound P-0047, 2-[4-(7-chloro-5H-pyrrolo[2,3-b]pyrazin-2-yl)-2-fluoro-phenyl]-N-[6-methoxy-5-(trifluoromethyl)-3-pyridyl]acetamide]: the 50% growth inhibitory concentration (GI50) (as a rule, the concentration at which growth is held to half of that of the control) on BA/F3-FLT3-ITD + D835Y lay within 0.0001 to 10 µM. The IC50 (as a rule, the concentration that gives 50% inhibition) in experiment [1] is 0.0001 to 10 µM.
Regarding `COc1nn(C[C@H](C)O)cc1Nc1ncc(-c2ccc(CC(=O)Nc3cncc(C(F)(F)F)c3)c(F)c2)cn1` [Compound P-0050, 2-[2-fluoro-4-[2-[[1-[(2S)-2-hydroxypropyl]-3-methoxy-pyrazol-4-yl]amino]pyrimidin-5-yl]phenyl]-N-[5-(trifluoromethyl)-3-pyridyl]acetamide], the GI50 at BA/F3-FLT3-ITD + D835Y was in the range of 0.0001 to 10 µM. The compound also came in with an IC50 in experiment [1] of 0.0001 to 10 µM.
As to `Cn1cnc(Nc2ncc(-c3ccc(CC(=O)Nc4cncc(C(F)(F)F)c4)c(F)c3)cn2)c1` [Compound P-0052, 2-[2-fluoro-4-[2-[(1-methylimidazol-4-yl)amino]pyrimidin-5-yl]phenyl]-N-[5-(trifluoromethyl)-3-pyridyl]acetamide], the GI50 at BA/F3-FLT3-ITD + D835Y was in the range of 0.0001 to 10 µM. The same compound had an IC50 in experiment [1] of 0.0001 to 10 µM.
With `O=C(Cc1ccc(-c2cnc3[nH]cc(F)c3c2)cc1F)Nc1cncc(C(F)(F)F)c1` [Compound P-0053, 2-[2-fluoro-4-(3-fluoro-1H-pyrrolo[2,3-b]pyridin-5-yl)phenyl]-N-[5-(trifluoromethyl)-3-pyridyl]acetamide], on BA/F3-FLT3-ITD + D835Y, the GI50 was 0.0001 to 10 µM. Besides, the IC50 in experiment [1] lay within 0.0001 to 10 µM.
Turning to `CC(=O)c1c[nH]c2ncc(-c3ccc(CC(=O)Nc4cncc(C(F)(F)F)c4)c(F)c3)cc12` [Compound P-0055, 2-[4-(3-acetyl-1H-pyrrolo[2,3-b]pyridin-5-yl)-2-fluoro-phenyl]-N-[5-(trifluoromethyl)-3-pyridyl]acetamide], the GI50 at BA/F3-FLT3-ITD + D835Y fell in the range of 0.0001 to 10 µM. In experiment [1], this compound came in with an IC50 of 0.0001 to 10 µM.
As to `Cc1ncc(NC(=O)Cc2ccc(-c3cnc4c(c3)C3(CC3)C(=O)N4)cc2F)cc1C(F)(F)F` [Compound P-0057, 2-[2-fluoro-4-(2-oxospiro[1H-pyrrolo[2,3-b]pyridine-3,1′-cyclopropane]-5-yl)phenyl]-N-[6-methyl-5-(trifluoromethyl)-3-pyridyl]acetamide], the GI50 on BA/F3-FLT3-ITD + D835Y is 0.0001 to 10 µM. Besides, in experiment [1], the IC50 lay in the range of 0.0001 to 10 µM.
Regarding `O=C(Cc1ccc(-c2cnc(Nc3cnn4ccccc34)nc2)cc1F)Nc1cncc(C(F)(F)F)c1` [Compound P-0058, 2-[2-fluoro-4-[2-(pyrazolo[1,5-a]pyridin-3-ylamino)pyrimidin-5-yl]phenyl]-N-[5-(trifluoromethyl)-3-pyridyl]acetamide], the GI50 at BA/F3-FLT3-ITD + D835Y fell in the range of 0.0001 to 10 µM. In experiment [1], the IC50 was in the range of 0.0001 to 10 µM.
As to `Cc1ncc(NC(=O)Cc2ccc(-c3cnc4[nH]cc(Cl)c4n3)cc2F)cc1C(F)(F)F` [Compound P-0059, 2-[4-(7-chloro-5H-pyrrolo[2,3-b]pyrazin-2-yl)-2-fluoro-phenyl]-N-[6-methyl-5-(trifluoromethyl)-3-pyridyl]acetamide], at BA/F3-FLT3-ITD + D835Y, the GI50 was in the range of 0.0001 to 10 µM. The compound also registered a half-maximal inhibitory concentration (IC50) in experiment [1] of 0.0001 to 10 µM.
`O=C(Cc1ccc(-c2cnc3[nH]cc(Cl)c3n2)cc1F)Nc1cnc(Cl)c(C(F)(F)F)c1` [Compound P-0060, 2-[4-(7-chloro-5H-pyrrolo[2,3-b]pyrazin-2-yl)-2-fluoro-phenyl]-N-[6-chloro-5-(trifluoromethyl)-3-pyridyl]acetamide]: the GI50 at BA/F3-FLT3-ITD + D835Y fell in the range of 0.0001 to 10 µM. In addition, the IC50 in experiment [1] lay within 0.0001 to 10 µM.
Take `O=C(Cc1ccc(-c2cnc3[nH]cc(Cl)c3n2)cc1F)Nc1cncc(C(F)(F)F)c1` [Compound P-0061, 2-[4-(7-chloro-5H-pyrrolo[2,3-b]pyrazin-2-yl)-2-fluoro-phenyl]-N-[5-(trifluoromethyl)-3-pyridyl]acetamide]: the GI50 on BA/F3-FLT3-ITD + D835Y lay in the range of 0.0001 to 10 µM. The same compound yielded an IC50 in experiment [1] of 0.0001 to 10 µM.
Consider `Cc1ncc(NC(=O)Cc2ccc(-c3cnc4[nH]cc(F)c4c3)cc2F)cc1C(F)(F)F` [Compound P-0062, 2-[2-fluoro-4-(3-fluoro-1H-pyrrolo[2,3-b]pyridin-5-yl)phenyl]-N-[6-methyl-5-(trifluoromethyl)-3-pyridyl]acetamide], for which the GI50 at BA/F3-FLT3-ITD + D835Y fell in the range of 0.0001 to 10 µM. In experiment [1], this compound registered a concentration for half-maximal inhibition (IC50) of 0.0001 to 10 µM.
Turning to `CC(=O)c1c[nH]c2ncc(-c3ccc(CC(=O)Nc4cnc(C)c(C(F)(F)F)c4)c(F)c3)cc12` [Compound P-0063, 2-[4-(3-acetyl-1H-pyrrolo[2,3-b]pyridin-5-yl)-2-fluoro-phenyl]-N-[6-methyl-5-(trifluoromethyl)-3-pyridyl]acetamide], the GI50 on BA/F3-FLT3-ITD + D835Y lay within 0.0001 to 10 µM. In experiment [1], the IC50 was 0.0001 to 10 µM.
With `O=C(Cc1ccc(-c2cnc3c(c2)C2(CC2)C(=O)N3)cc1F)Nc1cncc(C(F)(F)F)c1` [Compound P-0064, 2-(2-fluoro-4-(2′-oxo-1′,2′-dihydrospiro[cyclopropane-1,3′-pyrrolo[2,3-b]pyridin]-5′-yl)phenyl)-N-(5-(trifluoromethyl)pyridin-3-yl)acetamide], the concentration for 50% growth inhibition (GI50) at BA/F3-FLT3-ITD + D835Y fell in the range of 0.0001 to 10 µM. In addition, the IC50 in experiment [1] lay in the range of 0.0001 to 10 µM.
On to `Cc1ncc(NC(=O)Cc2ccc(-c3cnc(Nc4cnn5ccccc45)nc3)cc2F)cc1C(F)(F)F` [Compound P-0065, 2-(2-fluoro-4-(2-(pyrazolo[1,5-a]pyridin-3-ylamino)pyrimidin-5-yl)phenyl)-N-(6-methyl-5-(trifluoromethyl)pyridin-3-yl)acetamide], for which the GI50 on BA/F3-FLT3-ITD + D835Y lay in the range of 0.0001 to 10 µM. The 50% inhibitory concentration (IC50) in experiment [1] lay within 0.0001 to 10 µM.
Regarding `Cc1ncc(NC(=O)Cc2ccc(-c3cnc4[nH]nc(C5CC5)c4c3)cc2F)cc1C(F)(F)F` [Compound P-0066, 2-(4-(3-cyclopropyl-1H-pyrazolo[3,4-b]pyridin-5-yl)-2-fluorophenyl)-N-(6-methyl-5-(trifluoromethyl)pyridin-3-yl)acetamide], the GI50 at BA/F3-FLT3-ITD + D835Y was in the range of 0.0001 to 10 µM. In experiment [1], this compound registered an IC50 of 0.0001 to 10 µM.
`Cc1ncc(NC(=O)Cc2ccc(-c3cnc4[nH]c(Cl)cc4c3)cc2F)cc1C(F)(F)F` [Compound P-0067, 2-[4-(2-chloro-1H-pyrrolo[2,3-b]pyridin-5-yl)-2-fluoro-phenyl]-N-[6-methyl-5-(trifluoromethyl)-3-pyridyl]acetamide]: at BA/F3-FLT3-ITD + D835Y, the GI50 was 0.0001 to 10 µM. The same compound yielded an IC50 in experiment [1] of 0.0001 to 10 µM.
`CCC(=O)c1c[nH]c2ncc(-c3ccc(CC(=O)Nc4cncc(C(F)(F)F)c4)c(F)c3)cc12` [Compound P-0068, 2-[2-fluoro-4-(3-propanoyl-1H-pyrrolo[2,3-b]pyridin-5-yl)phenyl]-N-[5-(trifluoromethyl)-3-pyridyl]acetamide]: the GI50 on BA/F3-FLT3-ITD + D835Y was 0.0001 to 10 µM. Further, in experiment [1], the IC50 fell in the range of 0.0001 to 10 µM.
For `O=C(Cc1ccc(-c2cnc(Nc3cnn4ccccc34)nc2)c(F)c1)Nc1cncc(C(F)(F)F)c1` [Compound P-0071, 2-[3-fluoro-4-[2-(pyrazolo[1,5-a]pyridin-3-ylamino)pyrimidin-5-yl]phenyl]-N-[5-(trifluoromethyl)-3-pyridyl]acetamide], the GI50 on BA/F3-FLT3-ITD + D835Y is 0.0001 to 10 µM. In experiment [1], this compound returned an IC50 of 0.0001 to 10 µM.
As to `O=C(Cc1ccc(-c2cnc(Nc3cnn4ccccc34)nc2)cc1)Nc1cncc(C(F)(F)F)c1` [Compound P-0074, 2-[4-[2-(pyrazolo[1,5-a]pyridin-3-ylamino)pyrimidin-5-yl]phenyl]-N-[5-(trifluoromethyl)-3-pyridyl]acetamide], the GI50 on BA/F3-FLT3-ITD + D835Y was in the range of 0.0001 to 10 µM. Further, the IC50 in experiment [1] was 0.0001 to 10 µM.
Take `O=C(Cc1cc(F)c(-c2cnc(Nc3cnn4ccccc34)nc2)cc1F)Nc1cncc(C(F)(F)F)c1` [Compound P-0075, 2-[2,5-difluoro-4-[2-(pyrazolo[1,5-a]pyridin-3-ylamino)pyrimidin-5-yl]phenyl]-N-[5-(trifluoromethyl)-3-pyridyl]acetamide]: the GI50 on BA/F3-FLT3-ITD + D835Y lay within 0.0001 to 10 µM. The same compound returned a half-maximal inhibitory concentration (IC50) in experiment [1] of 0.0001 to 10 µM.
On to `Cc1ncc(NC(=O)Cc2ccc(-c3cnc(Nc4cnn(C)c4C)nc3)cc2F)cc1C(F)(F)F` [Compound P-0076, 2-[4-[2-[(1,5-dimethylpyrazol-4-yl)amino]pyrimidin-5-yl]-2-fluoro-phenyl]-N-[6-methyl-5-(trifluoromethyl)-3-pyridyl]acetamide], for which the GI50 at BA/F3-FLT3-ITD + D835Y is 0.0001 to 10 µM. Also, the IC50 in experiment [1] fell in the range of 0.0001 to 10 µM.

For the origin of these results see US10160747B2, “Compounds and methods for kinase modulation, and indications therefor” (Plexxikon Inc., priority 2016, dated 2018).
